Reference: patent US7501430B2 (ArQule, Inc., priority 2006, dated 2009)

The compounds below were run against T1, mutant B-RAF (Homo sapiens, UniProt P15056, V600E) (assay: RAF biochemical assay (MEK-1 phosphorylation, anti-phospho MEK1/2 detection)). Conditions: @ 10 uM; read-out: Mutant B-RAF % inhibition.
T1 construct: purchased Upstate (Charlottesville, Va.)
T1 sequence (P15056 whole entry V600E): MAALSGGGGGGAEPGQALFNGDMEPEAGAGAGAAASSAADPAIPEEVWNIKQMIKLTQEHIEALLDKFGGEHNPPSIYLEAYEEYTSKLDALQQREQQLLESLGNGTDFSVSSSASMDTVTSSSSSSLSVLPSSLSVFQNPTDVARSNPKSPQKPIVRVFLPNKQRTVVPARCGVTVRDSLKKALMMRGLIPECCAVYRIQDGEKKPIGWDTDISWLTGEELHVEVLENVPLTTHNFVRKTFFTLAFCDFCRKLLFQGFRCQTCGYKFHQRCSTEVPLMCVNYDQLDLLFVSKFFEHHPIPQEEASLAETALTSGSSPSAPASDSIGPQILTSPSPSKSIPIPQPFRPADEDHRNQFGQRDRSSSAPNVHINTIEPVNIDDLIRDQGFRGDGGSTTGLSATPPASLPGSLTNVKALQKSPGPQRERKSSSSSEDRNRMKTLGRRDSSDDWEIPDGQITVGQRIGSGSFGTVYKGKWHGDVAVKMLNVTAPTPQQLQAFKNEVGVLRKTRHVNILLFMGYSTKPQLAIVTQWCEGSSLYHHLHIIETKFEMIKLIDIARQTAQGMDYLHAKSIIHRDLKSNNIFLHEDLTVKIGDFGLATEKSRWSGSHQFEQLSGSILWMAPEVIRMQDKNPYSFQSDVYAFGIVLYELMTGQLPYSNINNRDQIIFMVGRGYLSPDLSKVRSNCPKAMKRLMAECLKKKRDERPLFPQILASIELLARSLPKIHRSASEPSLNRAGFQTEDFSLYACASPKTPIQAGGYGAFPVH
Procedure, shortened: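 Detection is by ELISA: after a 30 min room-temperature reaction, plate-captured GST-MEK-1 is probed with anti-phospho MEK1/2, then an AP-tagged secondary antibody with fluorescent Attophos read-out.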
`N#Cc1cccc(-c2nc3sccn3c2-c2ccnc(N[C@@H]3CCCNC3)n2)c1` [Example 125, 3-(5-{2-[(3R)-piperidin-3-ylamino]pyrimidin-4-yl}imidazo[2,1-b][1,3]thiazol-6-yl)benzonitrile] was tested, and the inhibition at 10 µM was 19%.
For `CC(C)CC(=O)N1CCC[C@@H](Nc2nccc(-c3c(-c4cccc(O)c4)nc4sccn34)n2)C1` [Example 116, 3-[5-(2-{[(3R)-1-(3-methylbutanoyl)piperidin-3-yl]amino}pyrimidin-4-yl)imidazo[2,1-b][1,3]thiazol-6-yl]phenol], the inhibition at 10 µM was 52%.
Work on `Cc1ccccc1-c1nc2occn2c1-c1ccnc(NC2CCNCC2)n1` [Example 304, 4-[6-(2-methylphenyl)imidazo[2,1-b][1,3]oxazol-5-yl]-N-piperidin-4-ylpyrimidin-2-amine] yielded an inhibition at 10 µM of 56%.
With `N#Cc1cccc(-c2nc3sccn3c2-c2ccnc(N[C@@H]3CCN(S(=O)(=O)c4ccc(Cl)cc4)C3)n2)c1` [Example 285, 3-{5-[2-({(3R)-1-[(4-chlorophenyl)sulfonyl]pyrrolidin-3-yl}amino)pyrimidin-4-yl]imidazo[2,1-b][1,3]thiazol-6-yl}benzonitrile] the inhibition at 10 µM was 35%.
Compound `O=C(NCc1ccc(F)cc1)N1CCC[C@@H](Nc2nccc(-c3c(-c4ccc(F)cc4)nc4occn34)n2)C1` [Example 76, (3R)-N-(4-fluorobenzyl)-3-({4-[6-(4-fluorophenyl)imidazo[2,1-b][1,3]oxazol-5-yl]pyrimidin-2-yl}amino)piperidine-1-carboxamide] has an inhibition at 10 µM of 36%.
Compound `O=S(=O)(c1ccc(Cl)cc1)N1CCC(Nc2nccc(-c3c(-c4ccc(O)cc4)nc4sccn34)n2)CC1` [Example 264, 4-{5-[2-({1-[(4-chlorophenyl)sulfonyl]piperidin-4-yl}amino)pyrimidin-4-yl]imidazo[2,1-b][1,3]thiazol-6-yl}phenol] has an inhibition at 10 µM of 5%.
`O=S(=O)(c1cc(C(F)(F)F)cc(C(F)(F)F)c1)N1CCC[C@@H](Nc2nccc(-c3c(-c4ccc(F)cc4)nc4occn34)n2)C1` [Example 56, N-((3R)-1-{[3,5-bis(trifluoromethyl)phenyl]sulfonyl}piperidin-3-yl)-4-[6-(4-fluorophenyl)imidazo[2,1-b][1,3]oxazol-5-yl]pyrimidin-2-amine] was tested, and the inhibition at 10 µM was 57%.
`CN(C)c1ccc(NC(=O)N2CCC(Nc3nccc(-c4c(-c5ccc(F)c(F)c5)nc5sccn45)n3)CC2)cc1` [Example 226, 4-({4-[6-(3,4-difluorophenyl)imidazo[2,1-b][1,3]thiazol-5-yl]pyrimidin-2-yl}amino)-N-[4-(dimethylamino)phenyl]piper-idine-1-carboxamide] showed an inhibition at 10 µM of 61%.
With `O=C(NCc1ccccc1)N1CCC(Nc2nccc(-c3c(-c4ccc(F)c(F)c4)nc4sccn34)n2)CC1` [Example 251, N-benzyl-4-({4-[6-(3,4-difluorophenyl)imidazo[2,1-b][1,3]thiazol-5-yl]pyrimidin-2-yl}amino)piperidine-1-carboxamide] the inhibition at 10 µM was 63%.
Work on `c1cc(-c2c(-c3ccc4c(c3)OCCO4)nc3sccn23)nc(NC2CCNCC2)n1` [Example 249, 4-[6-(2,3-dihydro-1,4-benzodioxin-6-yl)imidazo[2,1-b][1,3]thiazol-5-yl]-N-piperidin-4-ylpyrimidin-2-amine] yielded an inhibition at 10 µM of 58%.
Work on `COc1cc(-c2nc3sccn3c2-c2ccnc(N[C@@H]3CCCN(S(=O)(=O)c4ccc(Cl)cc4)C3)n2)ccc1Cl` [Example 100, 4-[6-(4-chloro-3-methoxyphenyl)imidazo[2,1-b][1,3]thiazol-5-yl]-N-{(3R)-1-[(4-chlorophenyl)sulfonyl]piper-idin-3-yl}pyrimidin-2-amine] yielded an inhibition at 10 µM of 40%.

Same assay, conditions: read-out: Mutant B-RAF IC50
`O=S(=O)(Cc1ccccc1)N1CCC[C@@H](Nc2nccc(-c3c(-c4cccc(O)c4)nc4sccn34)n2)C1` [Example 369, 3-[5-(2-{[(3R)-1-(benzylsulfonyl)piperidin-3-yl]amino}pyrimidin-4-yl)imidazo[2,1-b][1,3]thiazol-6-yl]phenol] showed an IC50 greater than 3 µM.
`O=C(O)CCc1ccc(S(=O)(=O)N2CCC[C@@H](Nc3nccc(-c4c(-c5ccc(F)cc5)nc5occn45)n3)C2)cc1` [Example 63, 3-(4-{[(3R)-3-({4-[6-(4-fluorophenyl)imidazo[2,1-b][1,3]oxazol-5-yl]pyrimidin-2-yl}amino)piperidin-1-yl]sulfonyl}phenyl)propanoicacid] was tested, and the IC50 was 0.441 µM.
With `CS(=O)(=O)N1CCC(Nc2nccc(-c3c(-c4cccc(O)c4)nc4sccn34)n2)CC1` [Example 332, 3-[5-(2-{[1-(methylsulfonyl)piperidin-4-yl]amino}pyrimidin-4-yl)imidazo[2,1-b][1,3]thiazol-6-yl}phenol] the IC50 was 0.01 µM.
With `O=C([C@@H]1CCCN1)N1CCC(Nc2nccc(-c3c(-c4ccc(F)cc4)nc4occn34)n2)CC1` [Example 192, 4-[6-(4-fluorophenyl)imidazo[2,1-b][1,3]oxazol-5-yl]-N-(1-L-prolylpiperidin-4-yl)pyrimidin-2-amine] the IC50 was 1.45 µM.
Work on `CC(C)CC(=O)N1CCC(Nc2nccc(-c3c(-c4ccc(F)cc4)nc4occn34)n2)CC1` [Example 180, 4-[6-(4-fluorophenyl)imidazo[2,1-b][1,3]oxazol-5-yl]-N-[1-(3-methylbutanoyl)piperidin-4-yl]pyrimidin-2-amine] yielded an IC50 of 2.04 µM.
For `N[C@@H](CCC(=O)O)C(=O)N1CCC(Nc2nccc(-c3c(-c4ccc(F)cc4)nc4occn34)n2)CC1` [Example 196, (4S)-4-amino-5-[4-({4-[6-(4-fluorophenyl)imidazo[2,1-b][1,3]oxazol-5-yl]pyrimidin-2-yl}amino)piperidin-1-yl]-5-oxopentanoic acid], the IC50 was 3.32 µM.
Compound `O=S(=O)(c1cccc(Cl)c1)N1CCC(Nc2nccc(-c3c(-c4ccc(F)cc4)nc4occn34)n2)CC1` [Example 206, N-{1-[(3-chlorophenyl)sulfonyl]piperidin-4-yl}-4-[6-(4-fluorophenyl)imidazo[2,1-b][1,3]oxazol-5-yl]pyrimidin-2-amine] has an IC50 of 0.329 µM.
`COc1ccc(C(=O)N2CCC[C@@H](Nc3nccc(-c4c(-c5cccc(OC)c5)nc5sccn45)n3)C2)cc1` [Example 83, N-[(3R)-1-(4-methoxybenzoyl)piperidin-3-yl]-4-[6-(3-methoxyphenyl)imidazo[2,1-b][1,3]thiazol-5-yl]pyrimidin-2-amine] gave an IC50 greater than 3 µM.
With `O=C(O)c1ccc(S(=O)(=O)N2CCC(Nc3nccc(-c4c(-c5ccc(F)cc5)nc5occn45)n3)CC2)cc1` [Example 229, 4-{[4-({4-[6-(4-fluorophenyl)imidazo[2,1-b][1,3]oxazol-5-yl]pyrimidin-2-yl}amino)piperidin-1-yl]sulfonyl)benzoic acid] the IC50 was 1.37 µM.
`CCNC(=O)Nc1cccc(-c2nc3sccn3c2-c2ccnc(N[C@@H]3CCCN(S(=O)(=O)c4ccc(Cl)cc4)C3)n2)c1` [Example 347, 1-(3-{5-[2-({(3R)-1-[(4-chlorophenyl)sulfonyl]piperidin-3-yl}amino)pyrimidin-4-yl]imidazo[2,1-b][1,3]thiazol-6-yl}phenyl)-3-ethyl urea] was tested, and the IC50 was 0.546 µM.
`O=C(Nc1ccc(F)cc1)N1CCC[C@@H](Nc2nccc(-c3c(-c4cccc(O)c4)nc4sccn34)n2)C1` [Example 335, (3R)-N-(4-fluorophenyl)-3-({4-[6-(3-hydroxyphenyl)imidazo[2,1-b][1,3]thiazol-5-yl]pyrimidin-2-yl}amino)piperidine-1-carboxamide] was tested, and the IC50 was 3.26 µM.
With `CCOC(=O)c1ccc(-c2nc3sccn3c2-c2ccnc(N[C@@H]3CCCN(S(=O)(=O)c4ccc(Cl)cc4)C3)n2)cc1OCC` [Example 130, ethyl 4-{5-[2-({(3R)-1-[(4-chlorophenyl)sulfonyl]piperidin-3-yl}amino)pyrimidin-4-yl]imidazo[2,1-b][1,3]thiazol-6-yl}-2-ethoxybenzoate] the IC50 was 1.09 µM.
With `CN(C)c1ccc(NC(=O)N2CCC(Nc3nccc(-c4c(-c5ccc(-c6ccccc6)cc5)nc5sccn45)n3)CC2)cc1` [Example 254, 4-{[4-(6-biphenyl-4-ylimidazo[2,1-b][1,3]thiazol-5-yl)pyri-midin-2-yl]amino)-N-[4-(di-methylamino)phenyl]piperidine-1-carboxamide] the IC50 was greater than 3 µM.
`COc1cccc(-c2nc3sccn3c2-c2ccnc(NC3CCN(C(=O)NCc4ccco4)CC3)n2)c1` [Example 234, N-(2-furylmethyl)-4-({4-[6-(3-methoxyphenyl)imidazo[2,1-b][1,3]thiazol-5-yl]pyrimidin-2-yl}amino)piperidine-1-carboxamide] gave an IC50 of 0.825 µM.
In the case of `O=S(=O)(c1ccc(Cl)cc1)N1CCC(Nc2nccc(-c3c(-c4ccc(F)cc4)nc4occn34)n2)CC1` [Example 199, N-{1-[(4-chlorophenyl)sulfonyl]piperidin-4-yl}-4-[6-(4-fluorophenyl)imidazo[2,1-b][1,3]oxazol-5-yl]pyrimidin-2-amine], the IC50 is reported as 0.092 µM.
Work on `CCCOC(=O)N1CCC(Nc2nccc(-c3c(-c4cccc(O)c4)nc4sccn34)n2)CC1` [Example 387, propyl 4-({4-[6-(3-hydroxyphenyl)imidazo[2,1-b][1,3]thiazol-5-yl]pyrimidin-2-yl}amino)piperidine-1-carboxylate] yielded an IC50 greater than 3 µM.
Compound `O=C(c1ccc(F)cc1)N1CCC[C@@H](Nc2nccc(-c3c(-c4cccc(O)c4)nc4sccn34)n2)C1` [Example 113, 3-[5-(2-{[(3R)-1-(4-fluorobenzoyl)piperidin-3-yl]amino}pyrimidin-4-yl)imidazo[2,1-b][1,3]thiazol-6-yl}phenol] has an IC50 of 3.84 µM.
`Cc1cn2c(-c3ccnc(N[C@@H]4CCCN(S(=O)(=O)c5ccc(F)cc5)C4)n3)c(-c3ccc(F)cc3)nc2s1` [Example 91, 4-[6-(4-fluorophenyl)-2-methylimidazo[2,1-b][1,3]thiazol-5-yl]-N-{(3R)-1-[(4-fluorophenyl)sulfonyl]piper-idin-3-yl}pyrimidin-2-amine] showed an IC50 of 0.352 µM.

Same assay, conditions: read-out: Mutant B-RAF IC50 (uM) or % inhibition
In the case of `O=S(=O)(c1ccccc1)N1CCC[C@@H](Nc2nccc(-c3c(-c4cccc(O)c4)nc4occn34)n2)C1` [Example 398, 3-[5-(2-{[(3R)-1-(phenylsulfonyl)piperidin-3-yl]amino}pyrimidin-4-yl)imidazo[2,1-b][1,3]oxazol-6-yl]phenol], the IC50 is reported as 0.042 µM.
